Consider 15 compounds from patent US12590091B2, “1H-pyrrolo[3,2-C]pyridine and 1H-pyrrolo[2,3-C]pyridine derivatives as TLR9 inhibitors for the treatment of fibrosis” (BRISTOL-MYERS SQUIBB COMPANY, priority 2020, dated 2026).

As usually defined, the IC50 is the midpoint of a concentration-inhibition curve. A high value points to weaker potency.

One test deals with T1, human TLR9 (Homo sapiens, UniProt Q9NR96).
T1 construct: host or cells: HEK-Blue cells
T1 sequence (Q9NR96 26-1032): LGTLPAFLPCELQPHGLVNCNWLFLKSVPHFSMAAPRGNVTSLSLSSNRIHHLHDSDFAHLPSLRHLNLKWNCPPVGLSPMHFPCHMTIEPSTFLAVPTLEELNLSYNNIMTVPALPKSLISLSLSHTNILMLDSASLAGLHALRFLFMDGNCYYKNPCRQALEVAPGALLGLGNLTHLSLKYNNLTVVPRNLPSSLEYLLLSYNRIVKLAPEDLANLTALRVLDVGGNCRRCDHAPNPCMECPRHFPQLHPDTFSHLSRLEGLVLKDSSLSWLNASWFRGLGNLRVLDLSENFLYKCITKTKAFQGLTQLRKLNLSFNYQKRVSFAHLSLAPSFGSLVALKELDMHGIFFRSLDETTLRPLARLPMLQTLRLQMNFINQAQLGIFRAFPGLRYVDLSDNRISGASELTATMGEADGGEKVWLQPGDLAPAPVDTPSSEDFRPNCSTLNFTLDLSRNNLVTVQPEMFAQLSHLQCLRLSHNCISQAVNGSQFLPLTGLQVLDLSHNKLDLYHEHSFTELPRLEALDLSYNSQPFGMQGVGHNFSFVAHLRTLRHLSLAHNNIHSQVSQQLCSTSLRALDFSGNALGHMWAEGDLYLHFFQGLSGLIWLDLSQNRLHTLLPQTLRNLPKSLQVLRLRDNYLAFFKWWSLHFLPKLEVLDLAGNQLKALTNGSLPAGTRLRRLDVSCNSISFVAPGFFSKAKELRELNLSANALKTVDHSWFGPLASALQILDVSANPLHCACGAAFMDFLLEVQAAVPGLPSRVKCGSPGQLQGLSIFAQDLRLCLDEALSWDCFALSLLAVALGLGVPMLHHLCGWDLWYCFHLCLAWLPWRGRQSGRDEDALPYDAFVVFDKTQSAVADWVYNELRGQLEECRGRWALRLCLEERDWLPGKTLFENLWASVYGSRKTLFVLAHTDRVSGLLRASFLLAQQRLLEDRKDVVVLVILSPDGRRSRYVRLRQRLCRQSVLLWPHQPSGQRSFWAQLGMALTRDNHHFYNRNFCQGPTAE
Briefly: TLR9 inhibition reporter assay (HEK-Blue cells, SEAP reporter). The note with it: HEK-Blue cells overexpressing human TLR9, stimulated with ODN2006 5 nM, 22 hour incubation. In kind it is cell-based. A digest of the protocol:
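HEK-Blue cells overexpressing human TLR9 (25,000 cells/well), NF-κB/AP-1-driven SEAP reporter. Compounds at 0.05 nM–50 μM final, 22 h at 37 °C, 5% CO2 with agonist. SEAP detected with HEK-Blue Detection medium; % inhibition versus agonist plus DMSO and known-inhibitor wells.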

The target in a further test is T2, human TLR7 (Homo sapiens, UniProt Q9NYK1).
T2 construct: host or cells: HEK-Blue cells
T2 sequence (Q9NYK1 27-1049): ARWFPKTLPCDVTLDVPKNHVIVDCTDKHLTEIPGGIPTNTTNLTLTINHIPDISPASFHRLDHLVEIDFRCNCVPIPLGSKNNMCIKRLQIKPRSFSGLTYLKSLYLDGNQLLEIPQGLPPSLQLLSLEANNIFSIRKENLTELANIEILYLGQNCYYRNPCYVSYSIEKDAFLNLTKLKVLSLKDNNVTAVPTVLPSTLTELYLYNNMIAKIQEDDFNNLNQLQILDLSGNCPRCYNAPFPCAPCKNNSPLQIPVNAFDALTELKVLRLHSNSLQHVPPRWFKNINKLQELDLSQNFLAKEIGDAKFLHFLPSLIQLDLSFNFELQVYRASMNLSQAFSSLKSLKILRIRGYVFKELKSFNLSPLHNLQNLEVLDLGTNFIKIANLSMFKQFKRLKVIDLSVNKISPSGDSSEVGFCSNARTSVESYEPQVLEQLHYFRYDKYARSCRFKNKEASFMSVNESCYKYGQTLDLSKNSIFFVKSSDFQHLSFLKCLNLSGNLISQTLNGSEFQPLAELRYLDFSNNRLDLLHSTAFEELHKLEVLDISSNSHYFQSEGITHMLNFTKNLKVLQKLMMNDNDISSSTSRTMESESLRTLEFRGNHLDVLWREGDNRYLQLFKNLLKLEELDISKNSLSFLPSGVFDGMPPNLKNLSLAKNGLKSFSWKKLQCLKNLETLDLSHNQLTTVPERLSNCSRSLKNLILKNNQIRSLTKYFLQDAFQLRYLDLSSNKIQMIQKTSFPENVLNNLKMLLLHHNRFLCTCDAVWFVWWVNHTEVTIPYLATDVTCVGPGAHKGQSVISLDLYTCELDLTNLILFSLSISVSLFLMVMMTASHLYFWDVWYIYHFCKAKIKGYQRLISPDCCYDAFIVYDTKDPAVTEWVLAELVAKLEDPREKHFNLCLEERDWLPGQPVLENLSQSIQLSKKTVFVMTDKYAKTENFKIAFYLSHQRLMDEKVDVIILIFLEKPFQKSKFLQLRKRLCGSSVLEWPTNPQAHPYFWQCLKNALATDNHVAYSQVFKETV
The test can be described thus: TLR7 inhibition reporter assay (HEK-Blue cells, SEAP reporter). In kind it is cell-based. The conditions noted are these: HEK-Blue cells overexpressing human TLR7, stimulated with gardiquimod 7.5 μM, 22 hour incubation. Summed up:
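Human TLR7/8/9 HEK-Blue reporter lines; dose range 0.05 nM–50 μM; 30 min RT preincubation; stimulus gardiquimod 7.5 μM / R848 15.9 μM / ODN2006 5 nM respectively; 22 h, 37 °C; SEAP detected colorimetrically.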
For orientation: Reporter assays use an easily measured gene product as a stand-in for the process of interest.

Structures are written as SMILES.

Regarding `Cc1nc(-c2ccc(C3(O)CC4CCC(C3)N4C(C)C)c(F)c2)cc2c1cc(-c1ccc(S(C)(=O)=O)cc1)n2C` [Example 100, (1R,3r,5S)-3-(4-(1,4-dimethyl-2-(4-(methylsulfonyl)phenyl)-1H-pyrrolo[3,2-c]pyridin-6-yl)-2-fluorophenyl)-8-isopropyl-8-azabicyclo[3.2.1]octan-3-ol], the results for the IC50 at human TLR9 and on human TLR7 were 184 nM and 7100 nM, respectively.
Consider `CCN1C2CCC1CC(O)(c1ccc(-c3cc4c(cc(-c5ccc(S(C)(=O)=O)cc5)n4C)c(C)n3)cc1F)C2` [Example 101, (1R,3r,5S)-3-(4-(1,4-dimethyl-2-(4-(methylsulfonyl)phenyl)-1H-pyrrolo[3,2-c]pyridin-6-yl)-2-fluorophenyl)-8-ethyl-8-azabicyclo[3.2.1]octan-3-ol], for which the IC50 came to 116 nM at human TLR9 and 5700 nM on human TLR7.
The corresponding values for `Cc1nc(-c2ccc(C3(O)CC4CCC(C3)N4C)c(F)c2)cc2c1cc(-c1ccc(S(C)(=O)=O)cc1)n2C` [Example 102, (1R,3r,5S)-3-(4-(1,4-dimethyl-2-(4-(methylsulfonyl)phenyl)-1H-pyrrolo[3,2-c]pyridin-6-yl)-2-fluorophenyl)-8-methyl-8-azabicyclo[3.2.1]octan-3-ol] are 127 nM and 5500 nM.
Take `Cc1nc(-c2ccc(C3(O)CCN(C(C)(C)C)CC3)c(F)c2)cc2c1cc(-c1ccc(S(C)(=O)=O)cc1)n2C` [Example 104, 1-(tert-butyl)-4-(4-(1,4-dimethyl-2-(4-(methylsulfonyl)phenyl)-1H-pyrrolo[3,2-c]pyridin-6-yl)-2-fluorophenyl)piperidin-4-ol]: the figures for the IC50 against human TLR9 and against human TLR7 were 161 nM and 2200 nM, respectively.
The like results for `Cc1nc(-c2ccc([C@@]3(O)CCN(C(C)C)C(C)(C)C3)c(F)c2)cc2c1cc(-c1ccc(S(C)(=O)=O)cc1)n2C` [Example 105, (R)-4-(4-(1,4-dimethyl-2-(4-(methylsulfonyl)phenyl)-1H-pyrrolo[3,2-c]pyridin-6-yl)-2-fluorophenyl)-1-isopropyl-2,2-dimethylpiperidin-4-ol] were, in that order, 52 nM and 1100 nM.
With `Cc1nc(-c2ccc([C@]3(O)CCN(C(C)C)C(C)(C)C3)c(F)c2)cc2c1cc(-c1ccc(S(C)(=O)=O)cc1)n2C` [Example 106, (S)-4-(4-(1,4-dimethyl-2-(4-(methylsulfonyl)phenyl)-1H-pyrrolo[3,2-c]pyridin-6-yl)-2-fluorophenyl)-1-isopropyl-2,2-dimethylpiperidin-4-ol], the IC50 at human TLR9 worked out at 47 nM; against human TLR7, 1500 nM.
The like results for `Cc1nc(-c2ccc(C3(O)CCN(C(C)C)CC3)c(F)c2)cc2c1cc(-c1ccc(S(C)(=O)=O)cc1)n2C` [Example 107, 4-(4-(1,4-dimethyl-2-(4-(methylsulfonyl)phenyl)-1H-pyrrolo[3,2-c]pyridin-6-yl)-2-fluorophenyl)-1-isopropylpiperidin-4-ol] were, in that order, 18 nM and 2100 nM.
Take `Cc1nc(-c2ccc(C3(O)CCN(C(C)(C)C)CC3)cc2F)cc2c1cc(-c1ccc(S(C)(=O)=O)cc1)n2C` [Example 108, 1-(tert-butyl)-4-(4-(1,4-dimethyl-2-(4-(methylsulfonyl)phenyl)-1H-pyrrolo[3,2-c]pyridin-6-yl)-3-fluorophenyl)piperidin-4-ol]: the values for the IC50 against human TLR9 and on human TLR7 were 204 nM and 1700 nM, respectively.
The like results for `Cc1nc(-c2ccc(C3(O)CCN(C(C)C)CC3)cc2F)cc2c1cc(-c1ccc(S(C)(=O)=O)cc1)n2C` [Example 109, 4-(4-(1,4-dimethyl-2-(4-(methylsulfonyl)phenyl)-1H-pyrrolo[3,2-c]pyridin-6-yl)-3-fluorophenyl)-1-isopropylpiperidin-4-ol] were, in that order, 188 nM and 1300 nM.
The corresponding values for `Cc1nc(C2CCN(C3CC4CCC(C3)N4CC(C)C)CC2)cc2c1cc(-c1ccc(S(C)(=O)=O)cc1)n2C` (stereo not drawn) [Example 114, 6-(1-(8-isobutyl-8-azabicyclo[3.2.1]octan-3-yl)piperidin-4-yl)-1,4-dimethyl-2-(4-(methylsulfonyl)phenyl)-1H-pyrrolo[3,2-c]pyridine] are 47 nM and 14200 nM.
The like results for `Cc1nc(-c2ccc(CN3CCN(CCC(C)(C)O)CC3)cc2)cc2c1c(F)c(-c1ccc(S(C)(=O)=O)cc1)n2C` [Example 115, 4-(4-(4-(3-fluoro-1,4-dimethyl-2-(4-(methylsulfonyl)phenyl)-1H-pyrrolo[3,2-c]pyridin-6-yl)benzyl)piperazin-1-yl)-2-methylbutan-2-ol] were, in that order, 615 nM and 16000 nM.
Take `Cc1nc(-c2ccc(CN3CCN(CCC(C)(C)O)CC3)cc2)cc2c1cc(-c1ccc(S(C)(=O)=O)cc1)n2C1CC1` [Example 116, 4-[4-[[4-[1-cyclopropyl-4-methyl-2-(4-methylsulfonylphenyl)pyrrolo[3,2-c]pyridin-6-yl]phenyl]methyl]piperazin-1-yl]-2-methyl-butan-2-ol]: the IC50 on human TLR9 stood at 59 nM; at human TLR7 it was 3200 nM.
Regarding `CC(C)N1CCN(c2ccc(-c3cc4c(cc(-c5ccc(S(C)(=O)=O)cc5)n4C)c(C(C)(C)O)n3)cc2)CC1` [Example 118, 2-[6-[4-(4-isopropylpiperazin-1-yl)phenyl]-1-methyl-2-(4-methylsulfonylphenyl)pyrrolo[3,2-c]pyridin-4-yl]propan-2-ol], the IC50 at human TLR9 is 57 nM; against human TLR7, 1700 nM.
The corresponding values for `CC(C)(O)CN1C2CCC1CN(Cc1ccc(-c3cc4c(cn3)cc(-c3ccc(S(C)(=O)=O)cc3)n4C3CC3)cc1)C2` [Example 121, 1-[3-[[4-[1-cyclopropyl-2-(4-methylsulfonylphenyl)pyrrolo[3,2-c]pyridin-6-yl]phenyl]methyl]-3,8-diazabicyclo[3.2.1]octan-8-yl]-2-methyl-propan-2-ol] are 129 nM and 600 nM.
Consider `Cc1nc(-c2ccc(CN3CCN(CC(C)(C)O)CC3)cc2)cc2c1c(F)c(-c1ccc(S(C)(=O)=O)cc1)n2C` [Example 122, 1-(4-(4-(3-fluoro-1,4-dimethyl-2-(4-(methylsulfonyl)phenyl)-1H-pyrrolo[3,2-c]pyridin-6-yl)benzyl)piperazin-1-yl)-2-methylpropan-2-ol], for which the IC50 turned out to be 103 nM at human TLR9 and 17100 nM against human TLR7.
